PubChem BioAssay AID256 (DTP/NCI, 2004)
Values joined by “and” are separate entries in the source; they are usually repeats but may differ in a detail not shown here. Equal values may be shown once. Inconclusive results and toxic doses are left out.

System: CD2F1 mice, L1210 leukemia ip, survival T/C
Assay: NCI In Vivo Anticancer Drug Screen. Data for tumor model L1210 Leukemia (intraperitoneal) in CD2F1 (CDF1) mice
Settings: higher = longer survival
Procedure, shortened: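 Compound-dosed mice with transplantable tumor versus matched vehicle controls; endpoint ratio T/C reported.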

In the case of `NC(C/[N+]([O-])=N/O)C(=O)O` (centres undefined), the T/C (endpoint: mean survival time, dose: 128.0 mg/kg/injection, schedule: Q08DX002 (ip), vehicle: saline) is reported as 112 % of control, the T/C (endpoint: mean survival time, dose: 150.0 mg/kg/injection, schedule: Q01DX009 (ip), vehicle: alkali diluted with saline) is reported as 102 % of control and the T/C (endpoint: mean survival time, dose: 256.0 mg/kg/injection, schedule: Q01DX001 (ip), vehicle: saline) is reported as 123 % of control. The T/C (endpoint: mean survival time, dose: 256.0 mg/kg/injection, schedule: Q04DX003 (ip), vehicle: saline) was 119 % of control, the T/C (endpoint: mean survival time, dose: 256.0 mg/kg/injection, schedule: Q04DX003 (oral), vehicle: saline) was 116 % of control and the T/C (endpoint: mean survival time, dose: 256.0 mg/kg/injection, schedule: Q04DX003 (sc), vehicle: saline) was 122 % of control. The T/C (endpoint: mean survival time, dose: 512.0 mg/kg/injection, schedule: Q04DX003 (ip), vehicle: saline) was 170 % of control, the T/C (endpoint: mean survival time, dose: 512.0 mg/kg/injection, schedule: Q04DX003 (sc), vehicle: saline) was 155 % of control and the T/C (endpoint: mean survival time, dose: 1024.0 mg/kg/injection, schedule: Q04DX003 (ip), vehicle: saline) was 90 % of control. The T/C (endpoint: mean survival time, dose: 1024.0 mg/kg/injection, schedule: Q04DX003 (oral), vehicle: saline) was 119 % of control, the T/C (endpoint: mean survival time, dose: 1024.0 mg/kg/injection, schedule: Q04DX003 (sc), vehicle: saline) was 89 % of control and the T/C (endpoint: mean survival time, dose: 1024.0 mg/kg/injection, schedule: Q08DX002 (ip), vehicle: saline) was 118 % of control. For the same compound, the T/C (endpoint: median survival time, dose: 0.78 mg/kg/injection, schedule: Q01DX009 (ip), vehicle: water) was 100 % of control, the T/C (endpoint: median survival time, dose: 0.78 mg/kg/injection, schedule: Q04DX003 (ip), vehicle: water) was 100 % of control and the T/C (endpoint: median survival time, dose: 1.57 mg/kg/injection, schedule: Q01DX009 (ip), vehicle: water) was 95 % of control and 100 % of control. For the same compound, the T/C (endpoint: median survival time, dose: 1.57 mg/kg/injection, schedule: Q04DX003 (ip), vehicle: water) was 95 % of control, the T/C (endpoint: median survival time, dose: 3.13 mg/kg/injection, schedule: Q01DX009 (ip), vehicle: water) was 100 % of control and the T/C (endpoint: median survival time, dose: 3.13 mg/kg/injection, schedule: Q04DX003 (ip), vehicle: water) was 95 % of control and 100 % of control. For the same compound, the T/C (endpoint: median survival time, dose: 6.25 mg/kg/injection, schedule: Q01DX009 (ip), vehicle: water) was 110 % of control, the T/C (endpoint: median survival time, dose: 6.25 mg/kg/injection, schedule: Q04DX003 (ip), vehicle: water) was 90 % of control and 95 % of control and the T/C (endpoint: median survival time, dose: 12.5 mg/kg/injection, schedule: Q01DX009 (ip), vehicle: water) was 105 % of control. For the same compound, the T/C (endpoint: median survival time, dose: 12.5 mg/kg/injection, schedule: Q04DX003 (ip), vehicle: water) was 90 % of control and 100 % of control, the T/C (endpoint: median survival time, dose: 13.0 mg/kg/injection, schedule: Q01DX009 (ip), vehicle: alkali diluted with saline) was 120 % of control and the T/C (endpoint: median survival time, dose: 16.2 mg/kg/injection, schedule: Q01DX009 (ip), vehicle: alkali diluted with saline) was 119 % of control. The T/C (endpoint: median survival time, dose: 21.6 mg/kg/injection, schedule: Q01DX009 (ip), vehicle: alkali diluted with saline) was 122 % of control, the T/C (endpoint: median survival time, dose: 25.0 mg/kg/injection, schedule: Q01DX009 (ip), vehicle: water) was 100 % of control and the T/C (endpoint: median survival time, dose: 25.0 mg/kg/injection, schedule: Q04DX003 (ip), vehicle: water) was 90 % of control and 105 % of control. The T/C (endpoint: median survival time, dose: 27.0 mg/kg/injection, schedule: Q01DX009 (ip), vehicle: alkali diluted with saline) was 124 % of control, the T/C (endpoint: median survival time, dose: 31.3 mg/kg/injection, schedule: Q01DX009 (ip), vehicle: water) was 122 % of control and the T/C (endpoint: median survival time, dose: 31.3 mg/kg/injection, schedule: Q04DX003 (ip), vehicle: water) was 116 % of control. The T/C (endpoint: median survival time, dose: 35.0 mg/kg/injection, schedule: Q04DX003 (ip), vehicle: alkali diluted with saline) was 120 % of control, the T/C (endpoint: median survival time, dose: 36.0 mg/kg/injection, schedule: Q01DX009 (ip), vehicle: alkali diluted with saline) was 120 % of control and the T/C (endpoint: median survival time, dose: 58.3 mg/kg/injection, schedule: Q04DX003 (ip), vehicle: alkali diluted with saline) was 120 % of control. For the same compound, the T/C (endpoint: median survival time, dose: 62.5 mg/kg/injection, schedule: Q01DX009 (ip), vehicle: water) was 122 % of control, the T/C (endpoint: median survival time, dose: 62.5 mg/kg/injection, schedule: Q04DX003 (ip), vehicle: water) was 122 % of control and the T/C (endpoint: median survival time, dose: 90.0 mg/kg/injection, schedule: Q01DX009 (ip), vehicle: alkali diluted with saline) was 158 % of control. For the same compound, the T/C (endpoint: median survival time, dose: 125.0 mg/kg/injection, schedule: Q01DX009 (ip), vehicle: alkali diluted with saline) was 114 % of control, the T/C (endpoint: median survival time, dose: 125.0 mg/kg/injection, schedule: Q01DX009 (ip), vehicle: water) was 88 % of control and the T/C (endpoint: median survival time, dose: 125.0 mg/kg/injection, schedule: Q04DX003 (ip), vehicle: water) was 122 % of control. For the same compound, the T/C (endpoint: median survival time, dose: 162.0 mg/kg/injection, schedule: Q04DX003 (ip), vehicle: alkali diluted with saline) was 151 % of control, the T/C (endpoint: median survival time, dose: 250.0 mg/kg/injection, schedule: Q04DX003 (ip), vehicle: water) was 155 % of control and 177 % of control and the T/C (endpoint: median survival time, dose: 270.0 mg/kg/injection, schedule: Q04DX003 (ip), vehicle: alkali diluted with saline) was 172 % of control. The T/C (endpoint: median survival time, dose: 450.0 mg/kg/injection, schedule: Q04DX003 (ip), vehicle: alkali diluted with saline) was 189 % of control and the T/C (endpoint: median survival time, dose: 500.0 mg/kg/injection, schedule: Q04DX003 (ip), vehicle: water) was 194 % of control.
